Results as given in US9475766B2, “Substituted aromatic sulfur compounds and methods of their use” (Cephalon, Inc., priority 2011, dated 2016).

How the values were obtained:
Format in all cases: cell-based
[1] = test system: HT29 colon cancer cell line; experiment: Cell survival and adhesion assay (luciferase), HT29; details: HT-29, 5 hours, HT29 cells overlayed onto human mesothelial cell monolayers, read-out: relative reduction in Luciferase activity, HT29 10 μM
Experimental: (§1) SU86 is a pancreatic cancer cell line. HT29 is a colon cancer cell line. BxPC3 is a pancreatic cell line. A2780 is an ovarian cancer cell line.
(§2) BxPc-3 and Su.86.86 pancreatic and HT-29 colon and A2780 ovarian cancer cell lines were purchased from ATCC and cultured in DMEM supplemented with 10% fetal bovine serum, glutamine, penicillin, and streptomycin. All cells were cultured at 37° C. in a humidified incubator in a 5% CO2 atmosphere. The cancer cell lines were transduced with a retrovirus containing pLuc-puro, a constitutive luciferase reporter and selected in […] media. Transient transfection of a full-length human c-FLIP construct in the vector pcDNA3 was performed as previously described. Scaife et al. Cancer Research 2002, 62: 6870-78.
(§3) Pancreatic cancer cell cultures (BxPc-3 and Su.86.86) and colon cancer (HT-29) and ovarian cancer (A2780) cells that were stably transfected with a firefly luciferase construct were transiently suspended with trypsin-PBS. 10^5 cells were overlayed onto confluent monolayers of human mesothelial cells in 96-well plates while simultaneously adding various concentrations of compounds of the invention or DMSO for 5 hours. The non-adherent cells were carefully washed away from the wells twice with 100 μl/well of blocking buffer (1% BSA in PBS) and twice again with ice-cold PBS. Adherent and surviving cells were detected by luciferase activity in a luminometer as follows. The cells were lysed in 0.1% TritonX-100, 25 mM Gly-Gly (7.8), MgSO4, 4 mM EGTA, 1 mM DTT. The total protein concentration was normalized with lysis buffer. 50 μl of cell lysate was added per well of a 96-well microtiter plate. 50 μl of luciferin substrate (Promega) was added per well and then the light output determined in a luminometer.

[2] = test system: A2780 ovarian cancer cell line; experiment: Cell survival and adhesion assay (luciferase), A2780; details: 5 hours, A2780 cells overlayed onto human mesothelial cell monolayers, read-out: relative reduction in Luciferase activity, A2780 10 μM
Experimental: as §1, §2, §3

[3] = test system: SU86 pancreatic cancer cell line (Su.86.86); experiment: Cell survival and adhesion assay (luciferase), SU86; details: 5 hours, SU86 cells overlayed onto human mesothelial cell monolayers, read-out: relative reduction in Luciferase activity, SU86 10 μM
Experimental: as §1, §2, §3

[4] = test system: BxPC3 pancreatic cell line; experiment: Cell survival and adhesion assay (luciferase), BxPC3; details: BXPC-3, 5 hours, BxPC3 cells overlayed onto human mesothelial cell monolayers, read-out: relative reduction in Luciferase activity, BxPC3 10 μM
Experimental: as §1, §2, §3

Question: Which results are given for CC(C)(c1ccc(S(=O)(=O)/C=C/C#N)cc1)c1nc2ccccc2o1 [Example 78, (E)-3-[4-(1-Benzoxazol-2-yl-1-methyl-ethyl)-benzenesulfonyl]-acrylonitrile]?
Answer: inhibition at 10 µM [1]: > 85%; inhibition at 10 µM [2]: > 85%; inhibition at 10 µM [3]: 50 to 85%; inhibition at 10 µM [4]: 50 to 85%

Question: CC(C)(C)c1cc(S(=O)(=O)/C=C/C#N)ccc1OCC(=O)NC1CCCCC1 [Example 63, 2-[2-tert-Butyl-4-((E)-2-cyano-ethenesulfonyl)-phenoxy]-N-cyclohexyl-acetamide] was tested. Which inhibition at 10 µM [1] did it give?
Answer: > 85%

Question: What about the inhibition at 10 µM [2] of the same molecule?
Answer: > 85%

Question: What about the inhibition at 10 µM [3] of the same molecule?
Answer: 50 to 85%

Question: And the inhibition at 10 µM [4]?
Answer: > 85%

Question: What does the source list for CC(C)(C)OC(=O)NCCNC(=O)C(C)(C)c1ccc(S(=O)(=O)/C=C/C#N)cc1 [Example 32, (2-{2-[4-((E)-2-Cyano-ethenesulfonyl)-phenyl]-2-methyl-propionylamino}-ethyl)-carbamic acid tert-butyl ester]?
Answer: inhibition at 10 µM [1]: 50 to 85%; inhibition at 10 µM [3]: 10 to 50%; inhibition at 10 µM [4]: 10 to 50%

Question: CC(C)(C(=O)O)c1cccc(S(=O)(=O)/C=C/C#N)c1 [Example 2, 2-[3-((E)-2-Cyano-ethenesulfonyl)-phenyl]-2-methyl-propionic acid] was tested. Which inhibition at 10 µM [1] did it give?
Answer: 10 to 50%

Question: What about the inhibition at 10 µM [2] of the same molecule?
Answer: < 10%

Question: And the inhibition at 10 µM [3]?
Answer: < 10%

Question: What about the inhibition at 10 µM [4] of the same molecule?
Answer: 10 to 50%

Question: With CC(C)(C(=O)NCc1ccccn1)c1ccc(S(=O)(=O)/C=C/C#N)cc1 [Example 7, 2-[4-((E)-2-Cyano-ethenesulfonyl)-phenyl]-N-pyridin-2-ylmethyl-isobutyramide] as the molecule, how does the inhibition at 10 µM [1] read?
Answer: < 10%

Question: And the inhibition at 10 µM [2]?
Answer: 10 to 50%

Question: And the inhibition at 10 µM [3]?
Answer: 10 to 50%

Question: What about the inhibition at 10 µM [4] of the same molecule?
Answer: 10 to 50%

Question: What does the source list for COCCOc1cccc(NC(=O)C(C)(C)c2ccc(S(=O)(=O)/C=C/C#N)cc2)c1 [Example 42, 2-[4-((E)-2-Cyano-ethenesulfonyl)-phenyl]-N-[3-(2-methoxy-ethoxy)-phenyl]-isobutyramide]?
Answer: inhibition at 10 µM [1]: > 85%; inhibition at 10 µM [3]: 50 to 85%; inhibition at 10 µM [4]: 50 to 85%

Question: For C#CCCNC(=O)C(C)(C)c1ccc(S(=O)(=O)/C=C/C#N)cc1 [Example 80, N-But-3-ynyl-2-[4-((E)-2-cyano-ethenesulfonyl)-phenyl]-isobutyramide], which inhibition at 10 µM [1] is on record?
Answer: > 85%

Question: What about the inhibition at 10 µM [2] of the same molecule?
Answer: 50 to 85%

Question: And the inhibition at 10 µM [3]?
Answer: 10 to 50%

Question: What about the inhibition at 10 µM [4] of the same molecule?
Answer: 50 to 85%

Question: CN(Cc1ccc(F)cc1)C(=O)C(C)(C)c1ccc(S(=O)(=O)/C=C/C#N)cc1 [Example 41, 2-[4-((E)-2-Cyano-ethenesulfonyl)-phenyl]-N-(4-fluoro-benzyl)-N-methyl-isobutyramide] was tested. Which inhibition at 10 µM [1] did it give?
Answer: > 85%

Question: What about the inhibition at 10 µM [3] of the same molecule?
Answer: 50 to 85%

Question: What about the inhibition at 10 µM [4] of the same molecule?
Answer: > 85%

Question: With CC(C)(C(=O)NCC(F)F)c1ccc(S(=O)(=O)/C=C/C#N)cc1 [Example 11, 2-[4-((E)-2-Cyano-ethenesulfonyl)-phenyl]-N-(2,2-difluoro-ethyl)-isobutyramide] as the molecule, how does the inhibition at 10 µM [1] read?
Answer: < 10%

Question: And the inhibition at 10 µM [2]?
Answer: 10 to 50%

Question: And the inhibition at 10 µM [3]?
Answer: 10 to 50%

Question: What about the inhibition at 10 µM [4] of the same molecule?
Answer: 10 to 50%

Question: For CC(C)(C(=O)Nc1ccccc1)c1ccc(S(=O)(=O)/C=C/C#N)cc1 [Example 5, 2-[4-((E)-2-Cyano-ethenesulfonyl)-phenyl]-N-phenyl-isobutyramide], which inhibition at 10 µM [1] is on record?
Answer: < 10%

Question: What about the inhibition at 10 µM [2] of the same molecule?
Answer: 50 to 85%

Question: And the inhibition at 10 µM [3]?
Answer: 10 to 50%

Question: And the inhibition at 10 µM [4]?
Answer: 50 to 85%

Question: What does the source list for CC(C)(C(=O)N[C@H]1CCCCNC1=O)c1ccc(S(=O)(=O)/C=C/C#N)cc1 [Example 30, 2-[4-((E)-2-Cyano-ethenesulfonyl)-phenyl]-N—((S)-2-oxo-azepan-3-yl)-isobutyramide]?
Answer: inhibition at 10 µM [1]: 50 to 85%; inhibition at 10 µM [3]: < 10%; inhibition at 10 µM [4]: < 10%

Question: Which inhibition at 10 µM [1] does the source give for Cc1ccc2oc(C(C)(C)c3ccc(S(=O)(=O)/C=C/C#N)cc3)nc2c1 [Example 50, (E)-3-{4-[1-Methyl-1-(5-methyl-benzoxazol-2-yl)-ethyl]-benzenesulfonyl}-acrylonitrile] here?
Answer: > 85%

Question: And the inhibition at 10 µM [3]?
Answer: 50 to 85%

Question: And the inhibition at 10 µM [4]?
Answer: > 85%

Question: Which results are given for CC(C)(C(=O)NNC(=O)C1CCCCC1)c1ccc(S(=O)(=O)/C=C/C#N)cc1 [Example 52, Cyclohexanecarboxylic acid N′-{2-[4-((E)-2-cyano-ethenesulfonyl)-phenyl]-2-methyl-propionyl}-hydrazide]?
Answer: inhibition at 10 µM [1]: 50 to 85%; inhibition at 10 µM [3]: 10 to 50%; inhibition at 10 µM [4]: < 10%

Question: For COc1cccc(CNC(=O)C(C)(C)c2ccc(S(=O)(=O)/C=C/C#N)cc2)c1 [Example 44, 2-[4-((E)-2-Cyano-ethenesulfonyl)-phenyl]-N-(3-methoxy-benzyl)-isobutyramide], which inhibition at 10 µM [1] is on record?
Answer: > 85%

Question: And the inhibition at 10 µM [3]?
Answer: 50 to 85%

Question: And the inhibition at 10 µM [4]?
Answer: > 85%

Question: What does the source list for COc1ccccc1CNC(=O)C(C)(C)c1ccc(S(=O)(=O)/C=C/C#N)cc1 [Example 45, 2-[4-((E)-2-Cyano-ethenesulfonyl)-phenyl]-N-(2-methoxy-benzyl)-isobutyramide]?
Answer: inhibition at 10 µM [1]: > 85%; inhibition at 10 µM [3]: 50 to 85%; inhibition at 10 µM [4]: > 85%

Question: With Cc1cnc(C(C)(C)c2ccc(S(=O)(=O)/C=C/C#N)cc2)o1 [Example 51, (E)-3-{4-[1-Methyl-1-(5-methyl-oxazol-2-yl)-ethyl]-benzenesulfonyl}-acrylonitrile] as the molecule, how does the inhibition at 10 µM [1] read?
Answer: > 85%

Question: And the inhibition at 10 µM [3]?
Answer: 50 to 85%

Question: And the inhibition at 10 µM [4]?
Answer: > 85%

Question: CC(C)(C(=O)NCc1ccc(S(C)(=O)=O)cc1)c1ccc(S(=O)(=O)/C=C/C#N)cc1 [Example 27, 2-[4-((E)-2-Cyano-ethenesulfonyl)-phenyl]-N-(4-methanesulfonyl-benzyl)-isobutyramide] was tested. Which inhibition at 10 µM [1] did it give?
Answer: 10 to 50%

Question: And the inhibition at 10 µM [3]?
Answer: < 10%

Question: What about the inhibition at 10 µM [4] of the same molecule?
Answer: < 10%

Question: Which results are given for CC(C)(C)OC(=O)NCCCCCCNC(=O)C(C)(C)c1ccc(S(=O)(=O)/C=C/C#N)cc1 [Example 33, (6-{2-[4-((E)-2-Cyano-ethenesulfonyl)-phenyl]-2-methyl-propionylamino}-hexyl)-carbamic acid tert-butyl ester]?
Answer: inhibition at 10 µM [1]: 50 to 85%; inhibition at 10 µM [3]: < 10%; inhibition at 10 µM [4]: 10 to 50%

Question: CC(C)(c1ccc(S(=O)(=O)/C=C/C#N)cc1)c1nnc(C2CCCCC2)o1 [Example 53, (E)-3-{4-[1-(5-Cyclohexyl-[1,3,4]oxadiazol-2-yl)-1-methyl-ethyl]-benzenesulfonyl}-acrylonitrile] was tested. Which inhibition at 10 µM [1] did it give?
Answer: > 85%

Question: And the inhibition at 10 µM [3]?
Answer: 50 to 85%

Question: What about the inhibition at 10 µM [4] of the same molecule?
Answer: > 85%

Question: What does the source list for CC(C)(C(=O)Nc1cccc(OCC(=O)O)c1)c1ccc(S(=O)(=O)/C=C/C#N)cc1 [Example 43, (3-{2-[4-((E)-2-Cyano-ethenesulfonyl)-phenyl]-2-methyl-propionylamino}-phenoxy)-acetic acid]?
Answer: inhibition at 10 µM [1]: < 10%; inhibition at 10 µM [3]: < 10%; inhibition at 10 µM [4]: < 10%

Question: What does the source list for CC(C)(C(=O)N[C@H](CO)c1ccccc1)c1ccc(S(=O)(=O)/C=C/C#N)cc1 [Example 29, 2-[4-((E)-2-Cyano-ethenesulfonyl)-phenyl]-N—((S)-2-hydroxy-1-phenyl-ethyl)-isobutyramide]?
Answer: inhibition at 10 µM [1]: 50 to 85%; inhibition at 10 µM [3]: < 10%; inhibition at 10 µM [4]: < 10%

Question: For CC(C)(C(=O)N1CCCCC1)c1ccc(S(=O)(=O)/C=C/C#N)cc1 [Example 28, (E)-3-[4-(1,1-Dimethyl-2-oxo-2-piperidin-1-yl-ethyl)-benzenesulfonyl]-acrylonitrile], which inhibition at 10 µM [1] is on record?
Answer: > 85%

Question: What about the inhibition at 10 µM [3] of the same molecule?
Answer: 10 to 50%

Question: What about the inhibition at 10 µM [4] of the same molecule?
Answer: 50 to 85%

Question: Which results are given for CC(C)(C(=O)NCc1ccccc1F)c1ccc(S(=O)(=O)/C=C/C#N)cc1 [Example 40, 2-[4-((E)-2-Cyano-ethenesulfonyl)-phenyl]-N-(2-fluoro-benzyl)-isobutyramide]?
Answer: inhibition at 10 µM [1]: > 85%; inhibition at 10 µM [3]: 50 to 85%; inhibition at 10 µM [4]: > 85%

Question: How did the inhibition at 10 µM [1] turn out when COCCOCc1ccc(NC(=O)C(C)(C)c2ccc(S(=O)(=O)/C=C/C#N)cc2)cc1 [Example 31, 2-[4-((E)-2-Cyano-ethenesulfonyl)-phenyl]-N-[4-(2-methoxy-ethoxymethyl)-phenyl]-isobutyramide] was run?
Answer: 50 to 85%

Question: And the inhibition at 10 µM [3]?
Answer: 10 to 50%

Question: What about the inhibition at 10 µM [4] of the same molecule?
Answer: 50 to 85%

Question: For COc1ccccc1CN(C)C(=O)C(C)(C)c1ccc(S(=O)(=O)/C=C/C#N)cc1 [Example 46, 2-[4-((E)-2-Cyano-ethenesulfonyl)-phenyl]-N-(2-methoxy-benzyl)-N-methyl-isobutyramide], which inhibition at 10 µM [1] is on record?
Answer: > 85%

Question: What about the inhibition at 10 µM [3] of the same molecule?
Answer: 50 to 85%

Question: What about the inhibition at 10 µM [4] of the same molecule?
Answer: > 85%

Question: How did the inhibition at 10 µM [1] turn out when CC(C)(C(=O)NCc1ccc(S(N)(=O)=O)cc1)c1ccc(S(=O)(=O)/C=C/C#N)cc1 [Example 26, 2-[4-((E)-2-Cyano-ethenesulfonyl)-phenyl]-N-(4-sulfamoyl-benzyl)-isobutyramide] was run?
Answer: < 10%

Question: And the inhibition at 10 µM [3]?
Answer: < 10%

Question: What about the inhibition at 10 µM [4] of the same molecule?
Answer: < 10%
